Legend:
human Gal-3 (hGal-3) = human Gal-3 (hGal-3) (Homo sapiens (Human), UniProt P17931); assay: Competitive binding assay: biotinylated hGal-3 binding to microplate-adsorbed asialofetuin (ASF); conditions: IC50 values from several measurements given as geomean
Summary of the method: (§1)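 Biotinylated hGal-3 or hGal-1 (preferably cysteine-free Cys→Ser mutant), 300–1000 ng/mL, competes with compound for ASF-coated wells for 3 h at 4 °C. Bound lectin detected with streptavidin-peroxidase (80 ng/mL, 1 h, 4 °C) and ABTS by absorbance; IC50 reported as geomean of several runs.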

human Gal-1 (hGal-1) = human Gal-1 (hGal-1) (Homo sapiens, UniProt P09382, C131S/C17S/C43S/C61S/C89S); assay: Competitive binding assay: biotinylated hGal-1 binding to microplate-adsorbed asialofetuin (ASF); conditions: IC50 values from several measurements given as geomean
Summary of the method: as §1

Sequence of human Gal-3 (hGal-3) (P17931 whole entry): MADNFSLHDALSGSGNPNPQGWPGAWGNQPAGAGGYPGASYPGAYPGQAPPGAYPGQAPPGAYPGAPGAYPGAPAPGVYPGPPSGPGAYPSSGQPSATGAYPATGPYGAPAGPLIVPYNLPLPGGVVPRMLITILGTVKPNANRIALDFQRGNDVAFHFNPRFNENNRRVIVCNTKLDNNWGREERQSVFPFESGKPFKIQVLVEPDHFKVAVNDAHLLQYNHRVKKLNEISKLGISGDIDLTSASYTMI

Compound | IC50 (human Gal-3 (hGal-3)) [nM] | IC50 (human Gal-1 (hGal-1)) [nM]
CO[C@@H]1[C@@H](n2cc(-c3ccc(Br)c(F)c3F)nn2)[C@@H](O)[C@@H](CO)O[C@@H]1Cc1cn([C@H]2CCC[C@@H]2F)nn1 (relative stereo) [Example 4.1.79.CD, (2R,3R,4S,5R,6R)-4-(4-(4-bromo-2,3-difluorophenyl)-1H-1,2,3-triazol-1-yl)-6-((1-((1S*,2S*)-2-fluorocyclopentyl)-1H-1,2,3-triazol-4-yl)methyl)-2-(hydroxymethyl)-5-methoxytetrahydro-2H-pyran-3-ol] | 70 | 4960
CO[C@@H]1[C@@H](n2cc(-c3ccc(Cl)c(F)c3F)nn2)[C@@H](O)[C@@H](CO)O[C@@H]1Cc1cn(C2(CCO)COC2)nn1 [Ex 2.1.22.] | 50 | 680
CO[C@@H]1[C@@H](n2cc(-c3ccc(Br)c(F)c3F)nn2)[C@@H](O)[C@@H](CO)O[C@@H]1Cn1cc(C2(O)CC2)nn1 [Ex 4.2.36.] | 130 | 5910
CO[C@@H]1[C@@H](n2cc(-c3ccc(F)c(F)c3F)nn2)[C@@H](O)[C@@H](CO)O[C@@H]1Cn1cc(C2(C)CC2)nn1 [Ex 3.2.23.] | 80 | 300
CO[C@@H]1[C@@H](n2cc(-c3ccc(F)c(F)c3F)nn2)[C@@H](O)[C@@H](CO)O[C@@H]1Cc1cn(C23CC(C)(C2)C3)nn1 [Ex 3.1.14.] | 60 | 700
CO[C@@H]1[C@@H](n2cc(-c3ccc(Cl)c(F)c3F)nn2)[C@@H](O)[C@@H](CO)O[C@@H]1Cc1cn([C@]2(C)C[C@H](O)C2)nn1 [Ex 2.1.19.] | 40 | 630
CO[C@@H]1[C@@H](n2cc(-c3ccc(F)c(F)c3F)nn2)[C@@H](O)[C@@H](CO)O[C@@H]1Cc1cn(C23CC(C2)C3)nn1 [Ex 3.1.12.] | 60 | 950
CO[C@@H]1[C@@H](n2cc(-c3ccc(F)c(F)c3F)nn2)[C@@H](O)[C@@H](CO)O[C@@H]1Cn1cc(C2CCCC2)nn1 [Ex 3.2.32.] | 60 | 1150
CCC1(c2cn(C[C@H]3O[C@H](CO)[C@H](O)[C@H](n4cc(-c5ccc(Br)c(F)c5F)nn4)[C@H]3OC)nn2)COC1 [Ex 4.2.38.] | 50 | 2260
CO[C@@H]1[C@@H](n2cc(-c3ccc(Cl)c(F)c3F)nn2)[C@@H](O)[C@@H](CO)O[C@@H]1Cc1cn([C@@H]2CC[C@H]2F)nn1 (single isomer, unassigned) [Example 2.1.88.D, (2R,3R,4S,5R,6R)-4-(4-(4-chloro-2,3-difluorophenyl)-1H-1,2,3-triazol-1-yl)-6-((1-((1R*,2R*)-2-fluorocyclobutyl)-1H-1,2,3-triazol-4-yl)methyl)-2-(hydroxymethyl)-5-methoxytetrahydro-2H-pyran-3-ol] | 40 | 2270
CO[C@@H]1[C@@H](n2cc(-c3ccc(F)c(F)c3F)nn2)[C@@H](O)[C@@H](CO)O[C@@H]1Cn1cc(C2(O)CCOCC2)nn1 [Ex 3.2.35.] | 60 | 860
CO[C@@H]1[C@@H](n2cc(-c3ccc(Cl)c(F)c3F)nn2)[C@@H](O)[C@@H](CO)O[C@@H]1Cc1cn(C2(C(F)(F)F)CCOCC2)nn1 [Ex 2.1.72., (2R,3R,4S,5R,6R)-4-(4-(4-chloro-2,3-difluorophenyl)-1H-1,2,3-triazol-1-yl)-2-(hydroxymethyl)-5-methoxy-6-((1-(4-(trifluoromethyl)tetrahydro-2H-pyran-4-yl)-1H-1,2,3-triazol-4-yl)methyl)tetrahydro-2H-pyran-3-ol] | 50 | 480
CO[C@@H]1[C@@H](n2cc(-c3ccc(Br)c(F)c3F)nn2)[C@@H](O)[C@@H](CO)O[C@@H]1Cc1cn([C@H]2CCCC2(F)F)nn1 [Example 4.1.64.B, (2R,3R,4S,5R,6R)-4-(4-(4-bromo-2,3-difluorophenyl)-1H-1,2,3-triazol-1-yl)-6-((1-((S)-2,2-difluorocyclopentyl)-1H-1,2,3-triazol-4-yl)methyl)-2-(hydroxymethyl)-5-methoxytetrahydro-2H-pyran-3-ol] | 50 | 1810
CO[C@@H]1[C@@H](n2cc(-c3ccc(Br)c(F)c3F)nn2)[C@@H](O)[C@@H](CO)O[C@@H]1Cc1cn([C@]2(C)C[C@H](O)C2)nn1 [Ex 4.1.19.] | 50 | 1820
CO[C@@H]1[C@@H](n2cc(-c3ccc(Cl)c(F)c3F)nn2)[C@@H](O)[C@@H](CO)O[C@@H]1Cc1cn(C2CC3(COC3)C2)nn1 [Ex 2.1.16.] | 90 | 5930
CO[C@@H]1[C@@H](n2cc(-c3ccc(Br)c(F)c3F)nn2)[C@@H](O)[C@@H](CO)O[C@@H]1Cn1cc(C2(O)CCCC2)nn1 [Ex 4.2.33.] | 100 | 4110
CO[C@@H]1[C@@H](n2cc(-c3ccc(C)c(F)c3F)nn2)[C@@H](O)[C@@H](CO)O[C@@H]1Cc1cn(C23CCC(O)(CC2)CC3)nn1 [Ex 1.1.8.] | 50 | 4010
CO[C@@H]1[C@@H](n2cc(-c3ccc(Cl)c(F)c3F)nn2)[C@@H](O)[C@@H](CO)O[C@@H]1Cn1cc(C2(O)CCC2)nn1 [Ex 2.2.31.] | 90 | 2630
CO[C@@H]1[C@@H](n2cc(-c3ccc(Cl)c(F)c3F)nn2)[C@@H](O)[C@@H](CO)O[C@@H]1Cc1cn(C23CC(F)(C2)C3)nn1 [Ex 2.1.25.] | 50 | 1960
CO[C@@H]1[C@@H](n2cc(-c3ccc(Cl)c(F)c3F)nn2)[C@@H](O)[C@@H](CO)O[C@@H]1Cn1cc(C2CCCC2)nn1 [Ex 2.2.32.] | 50 | 3810
CO[C@@H]1[C@@H](n2cc(-c3ccc(Br)c(F)c3F)nn2)[C@@H](O)[C@@H](CO)O[C@@H]1Cc1cn(C2(CO)CC2)nn1 [Ex 4.1.4.] | 40 | 2930
CO[C@@H]1[C@@H](n2cc(-c3ccc(C)c(F)c3F)nn2)[C@@H](O)[C@@H](CO)O[C@@H]1Cn1cc(C2(O)CCC2)nn1 [Ex 1.2.31.] | 60 | 3760

The next compounds have a lower IC50 (human Gal-3 (hGal-3)) than those just listed; values first:

IC50 (human Gal-3 (hGal-3)) [nM] | IC50 (human Gal-1 (hGal-1)) [nM] | Compound
30 | 1370 | CO[C@@H]1[C@@H](n2cc(-c3ccc(Cl)c(F)c3F)nn2)[C@@H](O)[C@@H](CO)O[C@@H]1Cc1cn(C2(C)CC(F)C2)nn1 (stereo partly drawn) [Example 2.1.47.A, (2R,3R,4S,5R,6R)-4-(4-(4-chloro-2,3-difluorophenyl)-1H-1,2,3-triazol-1-yl)-6-((1-((1S,3S)-3-fluoro-1-methylcyclobutyl)-1H-1,2,3-triazol-4-yl)methyl)-2-(hydroxymethyl)-5-methoxytetrahydro-2H-pyran-3-ol]
10 | 450 | CO[C@@H]1[C@@H](n2cc(-c3ccc(Cl)c(F)c3F)nn2)[C@@H](O)[C@@H](CO)O[C@@H]1Cc1cn([C@@H]2COC[C@@H]2F)nn1 (single isomer, unassigned) [Example 2.1.74.A, (2R,3R,4S,5R,6R)-4-(4-(4-chloro-2,3-difluorophenyl)-1H-1,2,3-triazol-1-yl)-6-((1-((3R*,4R*)-4-fluorotetrahydrofuran-3-yl)-1H-1,2,3-triazol-4-yl)methyl)-2-(hydroxymethyl)-5-methoxytetrahydro-2H-pyran-3-ol]
10 | 780 | CO[C@@H]1[C@@H](n2cc(-c3ccc(Cl)c(F)c3F)nn2)[C@@H](O)[C@@H](CO)O[C@@H]1Cc1cn([C@H]2CCOC[C@@H]2F)nn1 [Example 2.1.66.D, (2R,3R,4S,5R,6R)-4-(4-(4-chloro-2,3-difluorophenyl)-1H-1,2,3-triazol-1-yl)-6-((1-((3R,4S)-3-fluorotetrahydro-2H-pyran-4-yl)-1H-1,2,3-triazol-4-yl)methyl)-2-(hydroxymethyl)-5-methoxytetrahydro-2H-pyran-3-ol]
30 | 2100 | CO[C@@H]1[C@@H](n2cc(-c3ccc(Cl)c(F)c3F)nn2)[C@@H](O)[C@@H](CO)O[C@@H]1Cc1cn(C23COC(C2)C3)nn1 [Ex 2.1.44.]
20 | 670 | CO[C@@H]1[C@@H](n2cc(-c3ccc(Cl)c(F)c3F)nn2)[C@@H](O)[C@@H](CO)O[C@@H]1Cc1cn([C@]2(C)CCO[C@@H]2C)nn1 (single isomer, unassigned) [Example 2.1.68.B, (2R,3R,4S,5R,6R)-4-(4-(4-chloro-2,3-difluorophenyl)-1H-1,2,3-triazol-1-yl)-6-((1-((2R*,3R*)-2,3-dimethyltetrahydrofuran-3-yl)-1H-1,2,3-triazol-4-yl)methyl)-2-(hydroxymethyl)-5-methoxytetrahydro-2H-pyran-3-ol]
20 | 690 | CO[C@@H]1[C@@H](n2cc(-c3ccc(Cl)c(F)c3F)nn2)[C@@H](O)[C@@H](CO)O[C@@H]1Cc1cn(C2CC(F)C2)nn1 (single isomer, unassigned) [Example 2.1.60.A]
30 | 3160 | CO[C@@H]1[C@@H](n2cc(-c3ccc(Cl)c(F)c3F)nn2)[C@@H](O)[C@@H](CO)O[C@@H]1Cc1cn([C@H]2CCC[C@H]2F)nn1 [Example 2.1.79.B, (2R,3R,4S,5R,6R)-4-(4-(4-chloro-2,3-difluorophenyl)-1H-1,2,3-triazol-1-yl)-6-((1-((1S,2R)-2-fluorocyclopentyl)-1H-1,2,3-triazol-4-yl)methyl)-2-(hydroxymethyl)-5-methoxytetrahydro-2H-pyran-3-ol]
30 | 4430 | CO[C@@H]1[C@@H](n2cc(-c3ccc(Cl)c(F)c3F)nn2)[C@@H](O)[C@@H](CO)O[C@@H]1Cc1cn(C23CCC(O)(CC2)CC3)nn1 [Ex 2.1.8.]
30 | 700 | CO[C@@H]1[C@@H](n2cc(-c3ccc(Cl)c(F)c3F)nn2)[C@@H](O)[C@@H](CO)O[C@@H]1Cc1cn([C@]2(C)C[C@@H](O)C2)nn1 [Ex 2.1.27.]
20 | 690 | CO[C@@H]1[C@@H](n2cc(-c3ccc(Cl)c(F)c3F)nn2)[C@@H](O)[C@@H](CO)O[C@@H]1Cc1cn(C2(C)CCC2)nn1 [Ex 2.1.13.]
30 | 960 | CO[C@@H]1[C@@H](n2cc(-c3ccc(Br)c(F)c3F)nn2)[C@@H](O)[C@@H](CO)O[C@@H]1Cc1cn(C2(C(F)F)CCC2)nn1 [Ex 4.1.43.]

From US20240109930A1, “TRIAZOLYL-METHYL SUBSTITUTED ALPHA-D-GALACTOPYRANOSIDE DERIVATIVES” (Idorsia Pharmaceuticals Ltd, priority 2021, published 2024)
